The subject of assay [1] is Plasmodium falciparum. Description: Antiplasmodial activity against multidrug-resistant Plasmodium falciparum VS/1 by [3H]hypoxanthine incorporation assay. Format: functional, organism-based.
Assay [2] relates to Plasmodium falciparum. As to the kind of experiment: Antiplasmodial activity against Plasmodium falciparum 3D7 by [3H]hypoxanthine incorporation assay. Format: functional, organism-based.
The subject of assay [3] is Plasmodium falciparum. Description: Selectivity ratio of IC50 for Plasmodium falciparum 3D7 to IC50 for multidrug-resistant Plasmodium falciparum VS/1. The format is functional.
In assay [4] the test system is Plasmodium falciparum. As to the kind of experiment: Chemosensitization of quinine against multidrug-resistant Plasmodium falciparum VS/1 by [3H]hypoxanthine incorporation assay. Format: functional.
In assay [5] the test system is Plasmodium falciparum. Description: Chemosensitization of pyrimethamine against multidrug-resistant Plasmodium falciparum VS/1 by [3H]hypoxanthine incorporation assay. The format is functional.
Assay [6] relates to Plasmodium falciparum. Description: Chemosensitization of chlorcycloguanil against multidrug-resistant Plasmodium falciparum VS/1 by [3H]hypoxanthine incorporation assay. Format: functional.
The test system of assay [7] is Plasmodium falciparum. Description: Chemosensitization of chloroquine against multidrug-resistant Plasmodium falciparum VS/1 by [3H]hypoxanthine incorporation assay. The format is functional.
For assay [8], the system named is Plasmodium falciparum. As to the kind of experiment: Chemosensitization of primaquine against multidrug-resistant Plasmodium falciparum VS/1 by [3H]hypoxanthine incorporation assay. Format: functional.
Assay [9] has as its system Plasmodium falciparum. Description: Chemosensitization of benzonaphthyridine pyronaridine against multidrug-resistant Plasmodium falciparum VS/1 by [3H]hypoxanthine incorporation assay. Format: functional.
For assay [10], the system named is Plasmodium falciparum. As to the kind of experiment: Chemosensitization of piperaquine against multidrug-resistant Plasmodium falciparum VS/1 by [3H]hypoxanthine incorporation assay. Format: functional.
Assay [11] relates to Plasmodium falciparum. As to the kind of experiment: Chemosensitization of sesquiterpene dihydroartemisinin pyronaridine against multidrug-resistant Plasmodium falciparum VS/1 by [3H]hypoxanthine incorporation assay. Format: functional.
Assay [12] concerns Plasmodium falciparum. As to the kind of experiment: Chemosensitization of lumefantrine against multidrug-resistant Plasmodium falciparum VS/1 by [3H]hypoxanthine incorporation assay. The format is functional.
In assay [13] the test system is Plasmodium falciparum. Description: Chemosensitization of methotrexate against multidrug-resistant Plasmodium falciparum VS/1 by [3H]hypoxanthine incorporation assay. Format: functional.
Assay [14] concerns Plasmodium falciparum. Description: Chemosensitization of desethylamodiaquin against multidrug-resistant Plasmodium falciparum VS/1 by [3H]hypoxanthine incorporation assay. The format is functional.
The test system of assay [15] is Plasmodium falciparum. As to the kind of experiment: Chemosensitization of mefloquine against multidrug-resistant Plasmodium falciparum VS/1 by [3H]hypoxanthine incorporation assay. Format: functional.
For assay [16], the system named is Plasmodium falciparum. As to the kind of experiment: Chemosensitization of amodiaquin against multidrug-resistant Plasmodium falciparum VS/1 by [3H]hypoxanthine incorporation assay. The format is functional.
In assay [17] the test system is Plasmodium falciparum. Description: Chemosensitization of halofantrine against multidrug-resistant Plasmodium falciparum VS/1 by [3H]hypoxanthine incorporation assay. The format is functional.

One may read the IC50 as the point on the concentration scale where inhibition reaches its midpoint. The low end stands for greater potency in that assay, the high end for weaker potency in that assay.

As for `CCN(CC)Cc1cc(Nc2ccnc3cc(Cl)ccc23)ccc1O`, 8 nM corresponded to half-maximal inhibition in assay [1] (IC50).
In turn, `CC1(C)N=C(N)N=C(N)N1c1ccc(Cl)c(Cl)c1` [CHLORCYCLOGUANIL] returned a half-maximal inhibitory concentration (IC50) in [1] of 79 nM.
Regarding `CCNCc1cc(Nc2ccnc3cc(Cl)ccc23)ccc1O` [DESETHYL AMODIAQUINE], the IC50 in [1] was found to be 42 nM.
The same measure, in the same setting: to `CCCCN(CCCC)CCC(O)c1cc2c(Cl)cc(Cl)cc2c2cc(C(F)(F)F)ccc12` (configuration not stated) [HALOFANTRINE] belongs 9 nM.
As to `CCCCN(CCCC)CC(O)c1cc(Cl)cc2c1-c1ccc(Cl)cc1/C2=C/c1ccc(Cl)cc1` (configuration not stated) [LUMEFANTRINE], the values for the IC50 in [2] and in [1] were 1690 nM and 53 nM, respectively. The “Ratio IC50” value in [3] stood at 2.
Take `CN(Cc1cnc2nc(N)nc(N)c2n1)c1ccc(C(=O)N[C@@H](CCC(=O)O)C(=O)O)cc1` [METHOTREXATE]: the IC50 in assay [1] turned out to be 63 nM.
On the same count and under the same terms, the same measure for `Clc1ccc2c(N3CCN(CCCN4CCN(c5ccnc6cc(Cl)ccc56)CC4)CC3)ccnc2c1` [PIPERAQUINE]: 88 nM.
For the molecule `COc1cc(NC(C)CCCN)c2ncccc2c1` (configuration not stated) [PRIMAQUINE], the 50% inhibitory concentration (IC50) in [2] and in assay [1] was 326 nM in each case. For the same molecule, the “Ratio IC50” value in [3] is reported as 5.
Regarding `CCCN(CCC)S(=O)(=O)c1ccc(C(=O)O)cc1` [PROBENECID], the FICI in [4] turned out to be 1.2 nM; in assay [5], 0.2 nM; in [6], 0.64 nM; in assay [7] it was 0.78 nM; in assay [8], 0.83 nM; in assay [9], 5.9 nM. Moreover, the FICI in [10] was 0.12 nM; in assay [11], 1.12 nM; in assay [12] it was 1.21 nM; in [13] it was 1.02 nM; in [14] it was 1.12 nM; in assay [15], 0.78 nM. The results for the FICI in assay [16] and in assay [17] were 1.57 nM and 0.57 nM, respectively.
The molecule `CCc1nc(N)nc(N)c1-c1ccc(Cl)cc1` [PYRIMETHAMINE] showed a concentration for half-maximal inhibition (IC50) in assay [1] of 5000 nM.
Consider `C=C[C@H]1CN2CC[C@H]1C[C@H]2[C@H](O)c1ccnc2ccc(OC)cc12` [QUININE], for which half-maximal inhibition in [1] (IC50) required 133 nM.
As for `COc1ccc(CCN(C)CCCC(C#N)(c2ccc(OC)c(OC)c2)C(C)C)cc1OC` (configuration not stated) [VERAPAMIL], the FICI is 0.39 nM in assay [4]; 1.07 nM in assay [5]; 1 nM in assay [6]; 0.52 nM in [7]; 0.71 nM in [8]; 1.07 nM in assay [9]. The FICI was found to be 1.13 nM in assay [10]; 1.07 nM in [11]; 0.55 nM in assay [12]; 1.33 nM in assay [13]; 0.47 nM in assay [14]; 1.12 nM in assay [15]. Further, the FICI is given as 1.4 nM in assay [16] and 1.1 nM in [17].

These data come from ChEMBL document CHEMBL1649476, “In vitro chemosensitization of Plasmodium falciparum to antimalarials by verapamil and probenecid” (Antimicrob Agents Chemother, 2009).
